These results are taken from patent US9278069B2, “Nanoclusters compositions and methods” (UNIVERSITY OF KANSAS, priority 2005, dated 2016).

A short description of data set [1]: Dispersion stability of budesonide in model propellant HPFP. The conditions noted are these: dispersed in HPFP. The data set is classed as physicochemical. The method, then:
A trial run for determining the feasibility of budesonide nanoclusters as Metered Dose Inhaler formulations was performed. Budesonide nanoclusters and pure budesonide (milled) were dispersed in model propellant HPFP (2H, 3H perfluoropentane) and their dispersion stability was analyzed. HPFP has similar physico-chemical properties to MDI propellants such as […]. Previous literature studies indicate that dispersion stability of therapeutic molecules is similar in both HPFP and HFA227ea.

The subject of data set [2] is A549 cells. In words: Cytotoxicity of budesonide formulations, CellTiter 96 MTS assay. The data set is classed as cell-based. The note with it: up to 5 mg/mL, end of 12 hours. The method, then: In this experiment, 8×10^4 A549 cells/well were seeded in 96-well microtiter plates. At the end of the incubation period (12 h), […] of MTS reagent solution was added to each well and incubated for 3 hours at 37° C. The absorbance was measured at 490 nm using a microtiter plate reader (SpectraMax, M25, Molecular Devices Corp., CA). The percentage of viable cells with all tested concentrations was calculated relative to untreated cells.

The conditions of data set [3]: almost all organic solvent; cited from earlier work.
The nature of data set [4]: Aerodynamic diameter by time-of-flight measurement (Aerosizer LD). It counts as physicochemical. The note with it: insulin powders. The method, then: The aerodynamic size distributions of the agglomerate powders were measured directly from lyophilized powder by time-of-flight measurement using an Aerosizer LD (Amherst Instruments) equipped with a […] aperture operating at 6 psi.
The particle size of the dispersed nanoparticle agglomerates as well as the resuspended lyophilized powder was measured using a Coulter Multisizer 3. The aerodynamic size distributions of the agglomerate powders were measured directly from lyophilized powder by time-of-flight measurement using an Aerosizer LD (Amherst Instruments) equipped with a 700 μm aperture operating at 6 psi.
The aerodynamic diameters of the lyophilized powders were determined using an Aerosizer LD (Amherst Process Instruments Inc.). Data were collected over ˜70 seconds under high shear force (˜3.4 kPa) using a 700 μm nozzle.
The particle size was determined from the lyophilized powder using particle time-of-flight analysis. The particle mass mean aerodynamic diameter indentified using this analytical method was 1.0±0.1 μm, which is an ideal particle size for accessing the lung periphery.
Aerodynamic size distribution of the lyophilized powder was obtained by analyzing the time of flight measurements from an Aerosizer LD (Amherst Instruments) equipped with a 700 μm and operating 4 psi. […]

Data set [5] in a line: Dissolution of insulin particles in PBS (pH 7.4). The data set is classed as physicochemical. The conditions noted are these: PBS pH 7.4, 37 °C, FIG. 38. The protocol: Approximately 6 mg of each insulin particle sample was suspended in PBS (pH 7.4). The solution was placed in a 100,000 Dalton biotech grade cellulose ester dialysis tube (Spectrum Labs, Rancho Dominiguez, Calif.) and placed in PBS solution to a final volume of 45 mL. All samples were incubated at 37° C. and shaken at 50 rpm on a shaker table. 1 mL aliquots were taken at various time points up to 8 hours from the bulk solution and replaced with 1 mL of fresh PBS. The insulin concentration was measured using a Coomassie Plus colorimetric protein quantification assay (Thermo Fisher Scientific, Waltham, Mass.). A calibration curve was used to correlate the insulin concentration with the measured absorbance, with insulin concentrations ranging between 1 and 25 μg/mL used as the standard. Dissolved mass was calculated from the measured concentration, and was then normalized to the total loaded mass to determine the percent dissolved. All experiments were performed in triplicate. Analysis of variance (ANOVA) was used to determine statistically significant differences between groups (p<0.05). Comparisons among groups were done using a Fisher's F-test.

Data set [6] can be described thus: Cascade impaction of diatrizoic acid dry powder and nebulized suspension. The data set is classed as physicochemical. The conditions noted are these: flow rate ~30 L/min. The protocol:
FDA requires characterization of aerosols using cascade impaction, which determines aerosol particle size; indicative of the probable deposition site in the lung. The nanoparticle agglomerate formulation described above was studied using a Tisch Ambient Cascade Impactor. The study was carried out by applying ˜20 mg powder manually into the orifice of the instrument at an air flow rate of […]. Alternatively, the dry powders were suspended in water and applied into the cascade impactor through a nebulizer equipped with an LC Star atomizer. […] Cut-off particle aerodynamic diameters at 30 L/min for each stage of the impactor were: pre-separator (10.00 μm), stage 0 (9.00 μm), stage 1 (5.8 μm), stage 2 (4.7 μm), stage 3 (3.3 μm), stage 4 (2.1 μm), stage 5 (1.1 μm), stage 6 (0.7 μm), stage 7 (0.4 μm) and filter (0 μm). Diatrizoic acid nanoparticle agglomerates deposited on each stage of the impactor were determined by measuring the difference in weight of filters placed on the stages. The percent emitted fraction (% EF) and fine particle fractions of the total dose (FPFTD) were then calculated. In addition, the mass median aerodynamic diameter, MMAD, and geometric standard deviation, GSD, were obtained by a linear fit of the cumulative percent less-than the particle size range by weight plotted on a probability scale as a function of the logarithm of the effective cut-off diameter.

The nature of data set [7]: Solubility. It counts as physicochemical.
Data set [8] in a line: Cascade impaction of paclitaxel nanoparticle agglomerates (Tisch Ambient Cascade Impactor). The data set is classed as physicochemical. The protocol: Aerodynamic characteristics of selected nanoparticle agglomerates were studied in vitro using a Tisch Ambient Cascade Impactor (Tisch Environmental, Inc., Ohio). The study was carried out by applying ˜20 mg powder manually into the orifice of the instrument at an air flow rate of ˜30 L/min. Cut-off particle aerodynamic diameters for each stage of the impactor were: pre-separator ([…]), stage 0 ([…]), stage 1 (5.8 mm), stage 2 (4.7 mm), stage 3 (3.3 mm), stage 4 (2.1 mm), stage 5 (1.1 mm), stage 6 (0.7 mm), stage 7 (0.4 mm) and filter (0 mm). Nanoparticle agglomerates deposited on each stage of the impactor were determined by measuring the difference in weight of filters placed on the stages. The mass median aerodynamic diameter, MMAD, and geometric standard deviation, GSD, were obtained by a linear fit of the cumulative percent less-than the particle size range by weight plotted on a probability scale as a function of the logarithm of the effective cut-off diameter.

With `CCCC1O[C@@H]2C[C@H]3[C@@H]4CCC5=CC(=O)C=C[C@]5(C)[C@H]4[C@@H](O)C[C@]3(C)[C@]2(C(=O)CO)O1` (some centres unmarked) [milled budesonide, Budesonide], the figures for the “dispersion stability (creaming)” value in data set [1] and in data set [1] (listed as jet milled budesonide) were “clearly visible layer was seen at 1 hr” and “complete creaming”, respectively.

For the compound `CCCC1O[C@@H]2C[C@H]3[C@@H]4CCC5=CC(=O)C=C[C@]5(C)[C@H]4[C@@H](O)C[C@]3(C)[C@]2(C(=O)CO)O1` (some centres unmarked) [Stock budesonide, Budesonide], the cytotoxicity result in data set [2] is “did not show any significant cytotoxicity”.

Turning to `CO[C@H]1/C=C/O[C@@]2(C)Oc3c(C)c(O)c4c(O)c(c(/C=N/N5CCN(C)CC5)c(O)c4c3C2=O)NC(=O)/C(C)=C\C=C\[C@H](C)[C@H](O)[C@@H](C)[C@@H](O)[C@@H](C)[C@H](OC(C)=O)[C@@H]1C` [Rifampicin], the “solubility in organic solvent” value in data set [3] is on record as “freely soluble”.

In the case of “Unprocessed: Lyophilized insulin powder from bovine pancreas (0.5% zinc content)”, the daero in data set [4] came out at 4.117 ± 1.852 μm. Moreover, in data set [5], the insulin dissolution behaviour result is listed as “follows Higuchi dissolution kinetics”.

On to `CC(=O)Nc1c(I)c(NC(C)=O)c(I)c(C(=O)O)c1I` [Diatrizoic acid (powder), Diatrizoic acid], for which, in data set [6], the “% EF (percent emitted fraction)” value is reported as 70 ± 1%, the “% FPF (fine particle fraction) <3.3” value was 4 ± 2^ %, the “% FPF (fine particle fraction) <5.7” value turned out to be 21 ± 2% and the “GSD (geometric standard deviation)” value is given as 2 ± 0.1. Besides, in data set [6], the “MMAD (mass median aerodynamic diameter obtained from cascade impactor)” value came out at 9 ± 0.1.

Consider `[H]/N=C(/N)N[C@H]1[C@H](O)[C@@H](O)[C@H](O[C@@H]2O[C@@H](C)[C@](O)(C=O)[C@H]2O[C@@H]2O[C@@H](CO)[C@H](O)[C@@H](O)[C@@H]2NC)[C@@H](N/C(N)=N\[H])[C@@H]1O` [streptomycin, Streptomycin], for which, in data set [7], the “solubility in acetone and ethanol” value is “poorly soluble”; the solubility in water entry is reported as “freely water soluble”.

Turning to `CC(=O)Nc1c(I)c(NC(C)=O)c(I)c(C(=O)O)c1I` [Diatrizoic acid (suspen.), Diatrizoic acid], in data set [6], the “% EF (percent emitted fraction)” value is reported as 75 ± 5%, the “% FPF (fine particle fraction) <3.3” value is on record as 10 ± 7%, the “% FPF (fine particle fraction) <5.7” value stood at 33 ± 6% and the “GSD (geometric standard deviation)” value stood at 2 ± 0.1. Moreover, the “MMAD (mass median aerodynamic diameter obtained from cascade impactor)” value in data set [6] is 7 ± 1.

Regarding `CC(=O)O[C@H]1C(=O)[C@@]2(C)[C@H]([C@H](OC(=O)c3ccccc3)[C@]3(O)C[C@H](OC(=O)[C@H](O)[C@@H](NC(=O)c4ccccc4)c4ccccc4)C(C)=C1C3(C)C)[C@]1(OC(C)=O)CO[C@@H]1C[C@@H]2O` [Pure paclitaxel powder, Paclitaxel], in data set [8] (cascade impactor, ~30 L/min), the “GSD (geometric standard deviation)” value was 2.2 ± 0.03 and the “MMAD (mass median aerodynamic diameter)” value is given as 0.08 ± 0.02. In data set [8] (flow rate ~30 L/min), the “% RF (percent respirable fraction) <3.3” value stood at 0% and the “% RF (percent respirable fraction) <5.7” value was 0.39 ± 0.3%. Also, the “% EF (percent emitted fraction)” value in data set [8] (lyophilized NA, flow rate ~30 L/min) worked out at 68.3 ± 6.1%.
